Common to all, as to test: NCI-60 cell line screen, 48 h
The subject of test [1] is MDA-N.
The test system of test [2] is DU-145.
Test [3] has as its system T47D.
Test [4] relates to BT-549.

The text below walks through data of ChEMBL document CHEMBL1201862, “PubChem BioAssay data set” (2004).

Molecules are shown by their SMILES.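 Interpolation was linear, between the two tested concentrations surrounding the appropriate level; five concentrations were tested over 48 hours in 96-well plates. Here, GI50 denotes the concentration required for 50% inhibition of growth.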 The source made the active and inactive calls. Cut-off read from the data, not from the text of the source: active = GI50 up to about 1.1 µM and inactive = higher.

In the case of `CCCCCCCCCCOC1C(C(C)OCCCN(C)C)OC2OC3(CCCCC3)OC21` (stereo unspecified), the figures for the GI50 in test [1], in test [2] and in test [3] were 4.94 µM (inactive), 17.1 µM (inactive) and 18.1 µM (inactive), respectively.
With `Fc1ccc(Nc2nc(Cl)c3nc[nH]c3n2)cc1Cl`, the GI50 in test [4] was > 100 µM (inactive); in test [1], > 100 µM (inactive); in test [2], 87.3 µM (inactive); in test [3], 38.5 µM (inactive).
In the case of `Cc1nc(C(N)=S)sc1C(=O)C/C(=N/N)C(=O)Nc1cccc(Cl)c1C`, the GI50 in test [4], in test [1] and in test [3] was > 100 µM (inactive) each time.
For the compound `COc1ccc(Nc2nc3ccc(C(F)(F)F)cc3nc2C(=O)O)cc1OC`, the GI50 in test [4] was 22.5 µM (inactive); in test [1], 34.7 µM (inactive); in test [2], 28.6 µM (inactive).
Turning to `Cn1ncc(NCCn2cnc3c2c(=O)n(C)c(=O)n3C)c(Cl)c1=O`, the GI50 in test [4], in test [1], in test [2] and in test [3] was > 100 µM (inactive) throughout.
Regarding `COc1ccc(-c2c3c(n(C4OC(CO)C(O)C(O)C4O)c(=S)c2C#N)CCCC3)cc1` (stereo unspecified), the GI50 in test [1] was > 100 µM (inactive); in test [3], 58.5 µM (inactive).
With `CC(=O)N(CN1C(=O)CCC1C(=O)O)c1ccccc1Cl` (stereo unspecified), the GI50 in test [1], in test [2] and in test [3] was > 100 µM (inactive) in each case.
Take `Nc1nc(SCC(=O)O)nc(O)c1N`: the GI50 in test [4] is > 100 µM (inactive); in test [1], 33.2 µM (inactive); in test [2], > 100 µM (inactive); in test [3], > 100 µM (inactive).
In the case of `CO[C@@H]1C[C@H](OC(N)=O)[C@@H]2C=C[C@@H]3/C=C(C)/C=C/[C@@H](C)[C@H](/C(C)=C/[C@@H](C)NC(C)=O)OC(=O)/C=C/C=C(C)\C=C\[C@]3(C)[C@@H]2C1` [SUPERSTOLIDE B], the GI50 in test [4] is 0.224 µM (active); in test [1] it was < 0.005 µM (active); in test [2], < 0.005 µM (active); in test [3], < 0.005 µM (active).
Turning to `C=C1CC2(C[C@@H](c3ccccc3)O[C@@H](c3ccccc3)C2)OC1=O` (stereo partly specified), the GI50 in test [4] was 1.76 µM (inactive); in test [1], 2.28 µM (inactive); in test [2] it was 9.12 µM (inactive); in test [3], 1.85 µM (inactive).
The corresponding values for `COc1cc(C2C3=C(COC3=O)Oc3cc4c(cc32)OCO4)ccc1O` (stereo unspecified) are 1.1 µM (active), 0.11 µM (active), 0.514 µM (active) and 0.49 µM (active).
The corresponding values for `Cc1ccc(/C=N/n2c(=O)[nH]c3ccccc3c2=O)cc1` are > 100 µM (inactive), > 100 µM (inactive), > 100 µM (inactive) and > 100 µM (inactive).
`CC(=O)N1C(=O)c2cc3ccccc3cc21`: the GI50 in test [1], in test [2] and in test [3] was > 100 µM (inactive) each time.
Regarding `NC(=S)Nc1nc(=S)[nH]c2c1SC1=N/C(=C\c3ccco3)C(=O)N12`, the GI50 in test [4] was > 100 µM (inactive); in test [1] it was > 100 µM (inactive); in test [2], > 100 µM (inactive); in test [3], 61.8 µM (inactive).
Take `C[NH+]1[C@@H](Cc2ccccc2)C(=O)O[B-]1(F)c1ccccc1` (stereo partly specified): the GI50 in test [4], in test [1], in test [2] and in test [3] was > 100 µM (inactive) in each case.
Take `O=C1C(C(O)(C(F)(F)Cl)C(F)(F)Cl)CCCC1C(O)(C(F)(F)Cl)C(F)(F)Cl` (stereo unspecified): the GI50 in test [4], in test [1], in test [2] and in test [3] was > 10 µM (inactive) in each case.
Consider `O=C(N/N=C\c1ccc([N+](=O)[O-])s1)c1ccncc1`, for which the GI50 in test [4] is 11.3 µM (inactive); in test [1], 14.1 µM (inactive); in test [2], 20.7 µM (inactive); in test [3] it was 21.2 µM (inactive).
Turning to `CCN(CCCOc1ccccc1)CCN(CC)CCCOc1ccccc1`, the figures for the GI50 in test [4] and in test [2] were 14.3 µM (inactive) and 10.9 µM (inactive), respectively.
Take `Oc1c(CN2CCOCC2)ccc(CN2CCOCC2)c1O`: the GI50 is 81.3 µM (inactive) in test [4], 50.2 µM (inactive) in test [1], 26.6 µM (inactive) in test [2] and 39.7 µM (inactive) in test [3].
As to `Cc1cc2c(c(C(=O)NCCC(=O)O)c1)Oc1c(cc(C)cc1C(=O)NCCC(=O)O)S2`, the GI50 in test [4], in test [1], in test [2] and in test [3] was > 100 µM (inactive) in each case.
For `O=[N+]([O-])c1cccc(-c2nc(-c3ccccc3)c(-c3ccccc3)[nH]2)c1`, the GI50 in test [1], in test [2] and in test [3] was > 100 µM (inactive) each time.
For the compound `CCOC(=O)[C@@H]1ON2O[C@@H](OC3CCCCC3c3ccccc3)C[C@H]3OC(=O)[C@@H]1C32` (stereo partly specified), the GI50 in test [1], in test [2] and in test [3] was > 100 µM (inactive) in each case.
Take `CCCC(=O)N1CCN(c2ccc3c(c2)OC(C)O3)CC1` (stereo unspecified): the GI50 in test [4], in test [1], in test [2] and in test [3] was > 100 µM (inactive) in each case.
Take `COc1ccc(-c2nc(O)c3ccccc3n2)cc1`: the GI50 is 83.9 µM (inactive) in test [4], > 100 µM (inactive) in test [1], > 100 µM (inactive) in test [2] and 84.5 µM (inactive) in test [3].
Consider `CCCCCCCC(=O)OC[n+]1cccc(-c2c(COC(=O)NC(C)C)c(COC(=O)NC(C)C)c3n2CCC3)c1`, for which the GI50 is > 84.5 µM (inactive) in test [4], > 100 µM (inactive) in test [1], > 83.9 µM (inactive) in test [2] and > 93.3 µM (inactive) in test [3].
The corresponding values for `CC(=O)N1C(CCc2ccccc2)CC(C)(C=O)C1Cc1ccc(O[Si](C(C)C)(C(C)C)C(C)C)cc1` (stereo unspecified) are 15.6 µM (inactive), 2.39 µM (inactive), 5.61 µM (inactive) and 2.2 µM (inactive).
The matching figures for `Cc1ccc(C[N+](C)(C)N)cc1C`: > 10 µM (inactive), > 10 µM (inactive), > 10 µM (inactive) and > 10 µM (inactive).
For `O=C1NC(=O)C2=C1CCC2O` (stereo unspecified), the GI50 in test [1], in test [2] and in test [3] was > 100 µM (inactive) each time.
On to `NC12c3c4cccc3Oc3cccc(c31)Oc1cccc(c12)O4`, for which the GI50 in test [4], in test [1], in test [2] and in test [3] was > 50 µM (inactive) each time.
With `O=S(=O)(NC1OCCCC1I)c1ccccc1` (stereo unspecified), the GI50 in test [4], in test [1], in test [2] and in test [3] was > 100 µM (inactive) in each case.
On to `Cc1ccc(S(=O)(=O)N(CCNC(=O)c2cccc(O)c2O)c2cc3c4c(c2)Oc2cccc5c2C4(C)c2c(cccc2O3)O5)cc1`, for which the GI50 in test [1] is 6.93 µM (inactive); in test [2], > 100 µM (inactive); in test [3], 6.17 µM (inactive).
